The values that follow come from US4007165A (priority 1974, dated 1977).

Where a name gives a salt, the structure may show the parent alone. Read-outs that look alike come from different tables or passages of the source.

The conditions of series [1]: commercial compound, background statement; cited from earlier work.
The conditions of series [2]: cited from earlier work.
The nature of series [3]: Polymerization of styrene in sealed tube at 70° C. As to conditions: for dry polymer weight: 10.0 grams styrene. The method, then:
An 18 × 150 mm pyrex test tube was filled with 10.0 grams of distilled styrene monomer and 0.121 grams (8.4 × 10^^-4 moles) of 2-t-butylazo-2-hydroxypropane. The test tube was flushed out with nitrogen and placed in a constant temperature bath thermostatted at 70° C. After 4.0 hours at 70° C, the tube was removed and quickly chilled to -20° F to prevent post polymerization. The sealed tube was then broken and the polymer dissolved in 1000 ml of methanol to precipitate the polystyrene. The polymer was separated by filtration and dried in an oven at 50°-55° C. The dry polymer weighed 3.4 grams (34% conversion). The rate of conversion of monomer to polymer was 8.5% per hour.
An 18 × 150 mm pyrex test tube was filled with 10.0 grams of distilled styrene monomer and 0.134 grams (8.5 × 10^^-4 moles) of 2-t-butylazo-2-hydroxybutane from Example V. The test tube was flushed out with nitrogen and placed in a constant temperature thermostatted bath at 70° C. After 6.0 hours at 70° C, the tube was removed and quickly chilled to -20° F to prevent post polymerization. The sealed tube was then broken and the polymer dissolved in 1000 ml of methanol to precipitate the polystyrene. The polymer was separated by filtration and dried in an oven at 50°-55° C. The dry polymer weighed 4.8 grams (48% conversion). The rate of conversion of monomer to polymer was 8.0% per hour.

Series [4] in a line: Curing of unsaturated polyester-styrene resin. The method, then:
An unsaturated polyester resin was made by reacting maleic anhydride (1.0 mole), phthalic anhydride (1.0 mole), and propylene glycol (2.2 moles) until an acid number of 45-50 was obtained. To this was added hydroquinone at a 0.013% concentration. Seven parts of this unsaturated polyester was diluted with 3 parts of monomeric styrene to obtain a homogeneous blend having a viscosity of 13.08 poise and a specific gravity of 1.14.
To 20 grams of this blend was added 0.128 gram of alpha-(tert.-butylazo)isobutyronitrile and the resultant composition placed in a constant temperature bath at 212° F. (100° C.). […] At 180° F. (82.2° C.), a peak exotherm of 381° F. (193.9° C.) was obtained in 13.3 minutes. The resultant cured materials were very hard.
The procedure of Example III was used at 212° F. (100° C.) and 240° F. (115.6° C.) where peak exotherms of 414° F. (212.2° C.) and 440° F. (226.7° C.) were obtained after 10.0 and 5.3 minutes respectively using 0.2 gram of the 1-tert.-butylazo-1-cyanocyclohexane. The resultant cured resins were very hard.
The curing procedure and resin are described in Example III.

Series [5] in a line: Curing of unsaturated polyester-styrene resin. This is another data set of the same source.
Series [6] can be described thus: Polymerization of styrene, dilatometer rates. As to conditions: rate at 10% conversion. The method, then:
A solution of styrene containing 5 × 10^-^4 moles per deciliter of alpha-(tert.-butylazo)isobutyronitrile was heated at 85° C. and the change in density, which is a measure of polymer formation, was followed by means of a dilatometer to measure polymerization rates at 5% and 10% conversion to polystyrene. […] Without the alpha-(tert.-butylazo)-isobutyronitrile, the 5 and 10% rates were 0.92 × 10^-^3 moles per liter per minute. Thus, this azo compound initiated the polymerization of styrene at 85° C.
The procedure of Example II was used at 85° C. and 100° C. […] Without the 1-tert.-butylazo-1-cyanocyclohexane, the 5% and 10% rates at 100° C. were 2.81 × 10^-^3 moles per liter per minute.
A solution of styrene containing 5×10^^-4 moles per deciliter of the tert.-alkyl-α-substituted-azoalkane was heated in a constant temperature oil bath (the temperature of the bath depending on the thermal stability of the individual azo compounds) and the change in density, which is a measure of polymer formation, was followed by means of a dilatometer to measure polymerization rates (Rp) at 5% and 10% conversion to polystyrene. The rates obtained at 5% and 10% conversion are recorded in moles per liter per minute in Table LXXXII for the individual azo compounds. Their rate at 10% conversion (f1) is divided by the rate of a standard (f2) at the same temperature and concentration to give an efficiency rating f1 / f2.

The nature of series [7]: Emulsion polymerization of ethyl acrylate. Particulars: 3.65 × 10^-^4 moles initiator, 85°-87° C. The protocol:
An emulsion containing 50 g. of deionized water, 40 g. ethyl acrylate, 4.8 g. Triton X-200, Rohm & Haas anionic surfactant, and 0.0769 g. (3.65 × 10^-^4 moles) α-tert-butylazo-α-methyl-γ-carboxy-butyronitrile (from Example X) was prepared. Approximately 25 g. of the emulsion was placed in a 250 ml. 4-neck round bottom flask equipped with a mechanical stirrer, thermometer and condenser. Nitrogen was passed through the system and the contents of the flask were heated to the reflux temperature of 82° C. When the temperature rose to 90° C., indicating polymerization was occurring, the balance of the emulsion was slowly added from a self-venting addition funnel, maintaining the temperature at 85°-87° C. At the end of the addition the temperature was raised to 95° C. for 5 minutes, a very small amount of hydroquinone added and the reaction cooled to room temperature. The total reaction times was 11/3 hours. The final pH was 3.6. A 5 g. aliquot was weighed into a tared dish and the monomers and water evaporated and the conversion of monomer to polymer was determined to be 94%.
A similar polymerization was run under the same conditions using 3.65 × 10^-^4 moles of the sodium salt of α-tert-butylazo-α-methyl-γ-carboxybutyronitrile as the initiator. The conversion was 92.3% and the final pH was 6.6.

For series [8] the following is noted: for temperature at which it begins to evolve nitrogen: onset.
Series [9] in a line: Oxidation of iodide ion to free iodine.
Where [10] appears, read: 85° C., standard f2 benzoyl peroxide.
Where [11] appears, read: 180° F. (82.2° C.), 1.0 weight per cent.
Setting [12] is: 212° F. (100° C.), 1.0 weight per cent.
Setting [13] is: room temperature, 1.0 weight per cent.
Setting [14] is: 240° F. (115.6° C.), 1.0 weight per cent.
[15] abbreviates: 265° F. (129.4° C.), 1.0 weight per cent.

With `CC(C)(C#N)N=NC(C)(C)C#N` [2, 2'-AZOBISISOBUTYRONITRILE], the “toxicity” value in [1] was “toxic solid”. In addition, the “solubility” value was “very low or limited solubility” in series [2] (common organic solvents: aromatic hydrocarbons, dioxane, alcohol, ether, carbon tetrachloride) and “insoluble” in series [2] (petroleum hydrocarbon solvents).
`CCC(C)(O)N=NC(C)(C)C` (stereo not shown) [2-t-butylazo-2-hydroxybutane]: in series [3] (6.0 hours), the “rate of conversion of monomer to polymer” value is recorded as 8.0 % per hour and the dry polymer weight is reported as 4.8 grams. In series [3] (6.0 hours, 8.5 × 10^^-4 moles in 10.0 grams styrene), this compound came in with a conversion of 48%.
As for `CCCCC(C)(CC(C)C)N=NC(C)(C)C` (stereo not shown) [Example LXI, 4-t-Butylazo-2,4-dimethyloctane], in series [4] (bath 130° C.), the “Barcol Hardness” value amounted to 40 and the “Minutes to Peak Exotherm” value amounted to 11.1 min. Further, the “peak exotherm” value in series [5] (bath 130° C.) was found to be 382 ° F.
`CC(C)CC(C)(N=NC(C)(C)C)c1ccccc1` (stereo not shown) [Example LXII, 2-t-Butylazo-2-phenyl-4-methylpentane]: in series [6] (70° C., standard f2 benzoyl peroxide), the “f1 /f2 efficiency rating” value came out at 1.41.
For the compound `CC(C)(C)N=NC1(c2ccccc2)CCCCC1` [Example LXIII, 1-t-Butylazo-1-phenylcyclohexane], in series [4] (bath 100° C.), the “Barcol Hardness” value came out at 35, the “Minutes to Peak Exotherm” value is 4.8 min and the “peak exotherm” value was 435 ° F. Besides, in series [6] (setting [10]), the “f1 /f2 efficiency rating” value came to 1.32.
Consider `CC(C)(C)N=NC(C)(C#N)CCC(=O)O` (stereo not drawn) [Example X, alpha-tert.-butylazo-alpha-methyl-gammacarboxybutyronitrile], for which the “hardness of cured resin” value in [4] is recorded as “very hard”. Also, in series [4] (setting [11]), the peak exotherm came to 410 ° F and the “time to peak exotherm” value was determined as 8.5 min. Also, in [4] (setting [12]), the peak exotherm is on record as 422 ° F and the “time to peak exotherm” value was 3.8 min. In addition, in series [7], the “conversion of monomer to polymer” value is 94%. Further, the “temperature at which it begins to evolve nitrogen” value (“temperature at which it begins” below) in series [8] is 85 °C.
`CC(C)(C)N=NC(=O)C(C)(C)C` [Example XIX, Pivaloyl tert.-butyldiimide]: the “hardness of cured resin” value in series [4] is reported as “very hard”. Also, the results for the peak exotherm in series [4] (setting [11]) and in series [5] (setting [13]) were 289 ° F and 139 ° F, respectively. The “time to peak exotherm” value in series [4] (setting [11]) came to 4.9 min; in series [4] (setting [13]), 34.1 min. Moreover, in series [8], the “temperature at which it evolves nitrogen” value came to 35 °C.
As for `CC(C)(C)N=NC(C)(C)O` [LXXII, 2-t-Butylazo-2-hydroxypropane], in series [3] (4.0 hours), the “rate of conversion of monomer to polymer” value is reported as 8.5 % per hour and the dry polymer weight is listed as 3.4 grams. Further, in series [3] (4.0 hours, 8.4 × 10^^-4 moles in 10.0 grams styrene), the conversion came to 34%.
For the compound `CC(C)(C)N=NC1(N=[N+]=[N-])CCCCC1` [XLI, 1-t-butylazo-1-azidocyclohexane], the “f1 /f2 efficiency rating” value in series [6] (100° C., standard f2 t-butyl perbenzoate) is given as 0.58.
Take `COC(C)(C)CC(C)(N=NC(C)(C)C)N=[N+]=[N-]` (stereo not shown) [XLIV, 2-t-butylazo-2-azido-4-methyl-4-methoxypentane]: the “f1 /f2 efficiency rating” value in [6] (setting [10]) was 1.19.
For `CN(C)C(=O)N=NC(C)(C)C` [XV, tert.-butylazo-N,N-dimethylformamide], in [9], the “oxidizing of iodide ion” value is “oxidized iodide ion to free iodine”.
For `COC(=O)CNC(=O)N=NC(C)(C)C` [XVI, tert.-butylazo-N-carbmethoxymethylformamide], the “hardness of cured resin” value in series [4] was “very hard”. Besides, in series [4] (setting [14]), the peak exotherm was 356 ° F and the “time to peak exotherm” value is 15.8 min. Moreover, in series [4] (setting [15]), the peak exotherm is 484 ° F and the “time to peak exotherm” value turned out to be 5.1 min. Further, the “temperature at which it begins” value in series [8] worked out at 140 °C. Further, the “oxidizing of iodide ion” value in series [9] is “oxidized iodide ion to free iodine”.
Regarding `CC(C)(C)N=NC(=O)NCC(=O)O` [XVII, tert.-butylazo-N-carboxymethylformamide], the “temperature at which it begins” value in series [8] was 60 °C. The “oxidizing of iodide ion” value in series [9] is “oxidized iodide ion to free iodine”.
Regarding `CC(C)(N=NC(N)=O)c1ccccc1` [XVIII, Tert.-cumylazoformamide], the “hardness of cured resin” value in [4] is reported as “very hard”. Moreover, in [4] (setting [14]), the peak exotherm is listed as 422 ° F and the “time to peak exotherm” value came to 10.3 min. In series [4] (setting [15]), the peak exotherm was determined as 454 ° F and the “time to peak exotherm” value came out at 6.0 min. In addition, the “gas/nitrogen evolution or decomposition” value in series [8] (room temperature or on melting) is given as “rapidly evolves nitrogen upon melting”. The “oxidizing of iodide ion” value in [9] is recorded as “oxidized iodide ion to free iodine”.
`CC(C)(C)N=Nc1nc(N=NC(C)(C)C)nc(N=NC(C)(C)C)n1` [XXI, 2,4,6-Tri-(tert.-butylazo)-1,3,5-triazine]: the “temperature at which it begins” value in series [8] was 102 °C. Also, the “oxidizing of iodide ion” value in series [9] is “oxidized iodide ion to free iodine”.
Regarding `CC(C)(C)N=NC1=CCCCC1` [XXIII, 1(-tert.-butylazo)cyclohexene], in series [8], the “temperature at which it evolves nitrogen” value was 60 °C. Besides, the “gelling of resin” value in series [5] (room temperature) was “gelled”.
As for `COC1(N=NC(C)(C)C)CCCCC1` [XXXV, 1-t-butylazo-1-methoxycyclohexane], in [4] (bath 145° C.), the “Minutes to Peak Exotherm” value was found to be 5.7 min and the “peak exotherm” value is listed as 396 ° F. Besides, the “Barcol Hardness” value in [5] (bath 145° C.) is given as 40.
For the compound `COC(C)(C)CC(C)(N=NC(C)(C)C)OC` (stereo not shown) [XXXVIII, 2-t-butylazo-4-methyl-2,4-dimethoxypentane], the “f1 /f2 efficiency rating” value in [6] (115° C., standard f2 di-t-butyl peroxide) amounted to 0.38.
In the case of `CC(C)(C)N=NC(C)(C#N)CCC(=O)O` (stereo not drawn) [sodium salt of α-tert-butylazo-α-methyl-γ-carboxybutyronitrile], in [7], the “conversion of monomer to polymer” value turned out to be 92.3%.
